Data from ChEMBL document CHEMBL1145498, “A systematic interaction map of validated kinase inhibitors with Ser/Thr kinases” (Proc Natl Acad Sci U S A, 2007).

Columns and labels:
[1] = biological target: Casein kinase I isoform gamma-1 (Homo sapiens) (UniProt Q9HCP0)
[2] = biological target: T1, Serine/threonine-protein kinase 17A (Homo sapiens) (UniProt Q9UEE5)
T1 sequence (whole entry): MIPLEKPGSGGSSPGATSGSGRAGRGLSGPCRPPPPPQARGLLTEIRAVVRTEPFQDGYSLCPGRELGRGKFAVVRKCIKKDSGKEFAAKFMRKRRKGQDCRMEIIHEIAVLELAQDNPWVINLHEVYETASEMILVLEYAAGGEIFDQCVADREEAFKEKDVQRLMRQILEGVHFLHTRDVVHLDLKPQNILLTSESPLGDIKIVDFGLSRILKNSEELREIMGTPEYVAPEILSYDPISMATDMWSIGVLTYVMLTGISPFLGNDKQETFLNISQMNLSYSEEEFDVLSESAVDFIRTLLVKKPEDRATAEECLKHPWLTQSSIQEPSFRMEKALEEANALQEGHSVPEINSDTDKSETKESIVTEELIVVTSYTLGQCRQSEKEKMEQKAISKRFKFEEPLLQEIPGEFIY

[3] = biological target: Serine/threonine-protein kinase 26 (Homo sapiens) (UniProt Q9P289)
Chain of Serine/threonine-protein kinase 26 (Homo sapiens) (Q9P289 2-416 limits assumed): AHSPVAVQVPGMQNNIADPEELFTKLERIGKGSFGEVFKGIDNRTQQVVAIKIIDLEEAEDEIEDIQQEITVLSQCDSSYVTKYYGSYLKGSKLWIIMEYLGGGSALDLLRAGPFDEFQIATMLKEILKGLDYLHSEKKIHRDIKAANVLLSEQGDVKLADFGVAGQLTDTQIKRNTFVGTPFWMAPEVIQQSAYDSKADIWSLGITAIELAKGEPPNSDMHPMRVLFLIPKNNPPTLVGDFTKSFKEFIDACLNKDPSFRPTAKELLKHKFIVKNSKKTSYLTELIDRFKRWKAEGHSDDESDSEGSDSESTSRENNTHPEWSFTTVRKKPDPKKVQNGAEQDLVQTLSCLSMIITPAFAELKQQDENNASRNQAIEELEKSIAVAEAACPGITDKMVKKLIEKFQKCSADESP

[4] = biological target: T2, Serine/threonine-protein kinase VRK3 (Homo sapiens) (UniProt Q8IV63)
T2 sequence (whole entry): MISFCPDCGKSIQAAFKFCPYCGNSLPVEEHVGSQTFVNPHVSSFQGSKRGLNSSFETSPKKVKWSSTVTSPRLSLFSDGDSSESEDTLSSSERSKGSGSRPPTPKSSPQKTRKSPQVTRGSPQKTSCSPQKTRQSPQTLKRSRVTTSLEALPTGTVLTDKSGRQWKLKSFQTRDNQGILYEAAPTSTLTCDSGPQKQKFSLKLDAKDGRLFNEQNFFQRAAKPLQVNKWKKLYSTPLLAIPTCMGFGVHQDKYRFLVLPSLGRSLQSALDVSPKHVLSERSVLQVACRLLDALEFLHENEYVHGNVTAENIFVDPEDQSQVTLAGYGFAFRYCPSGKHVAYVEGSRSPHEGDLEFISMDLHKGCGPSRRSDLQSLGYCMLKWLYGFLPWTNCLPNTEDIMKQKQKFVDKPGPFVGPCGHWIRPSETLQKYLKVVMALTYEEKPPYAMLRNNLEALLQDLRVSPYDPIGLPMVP

[5] = biological target: Serine/threonine-protein kinase PAK 6 (Homo sapiens) (UniProt Q9NQU5)
Chain of Serine/threonine-protein kinase PAK 6 (Homo sapiens) (Q9NQU5 whole entry, looked up): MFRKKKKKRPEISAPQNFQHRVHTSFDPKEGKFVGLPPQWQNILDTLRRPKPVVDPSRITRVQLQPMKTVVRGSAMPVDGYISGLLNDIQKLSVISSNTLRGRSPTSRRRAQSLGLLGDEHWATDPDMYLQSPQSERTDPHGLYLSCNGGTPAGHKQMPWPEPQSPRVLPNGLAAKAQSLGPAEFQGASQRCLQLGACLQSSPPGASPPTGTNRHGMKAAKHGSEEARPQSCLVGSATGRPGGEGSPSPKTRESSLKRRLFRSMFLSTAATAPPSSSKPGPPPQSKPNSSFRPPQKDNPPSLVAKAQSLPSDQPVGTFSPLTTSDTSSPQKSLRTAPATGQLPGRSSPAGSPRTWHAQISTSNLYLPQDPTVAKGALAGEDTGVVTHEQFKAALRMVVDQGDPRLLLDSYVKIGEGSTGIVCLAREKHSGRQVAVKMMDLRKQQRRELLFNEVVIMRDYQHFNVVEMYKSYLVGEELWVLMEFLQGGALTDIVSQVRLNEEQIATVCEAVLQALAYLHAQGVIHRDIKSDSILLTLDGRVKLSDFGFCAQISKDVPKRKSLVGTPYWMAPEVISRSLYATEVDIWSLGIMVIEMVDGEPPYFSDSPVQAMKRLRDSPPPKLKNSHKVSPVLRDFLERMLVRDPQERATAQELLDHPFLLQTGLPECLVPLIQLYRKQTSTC

[6] = biological target: T3, Serine/threonine-protein kinase Nek2 (Homo sapiens) (UniProt P51955)
T3 sequence (whole entry): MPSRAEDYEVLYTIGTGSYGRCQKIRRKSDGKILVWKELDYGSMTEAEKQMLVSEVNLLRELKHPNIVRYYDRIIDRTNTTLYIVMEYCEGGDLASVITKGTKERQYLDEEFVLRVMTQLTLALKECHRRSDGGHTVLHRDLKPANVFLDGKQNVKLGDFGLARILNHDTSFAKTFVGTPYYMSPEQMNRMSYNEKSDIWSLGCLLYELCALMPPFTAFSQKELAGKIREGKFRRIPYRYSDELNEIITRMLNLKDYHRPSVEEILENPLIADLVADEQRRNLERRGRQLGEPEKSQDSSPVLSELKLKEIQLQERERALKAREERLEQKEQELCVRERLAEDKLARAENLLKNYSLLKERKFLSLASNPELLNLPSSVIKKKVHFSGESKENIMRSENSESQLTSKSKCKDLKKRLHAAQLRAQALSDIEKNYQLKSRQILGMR

[7] = biological target: Serine/threonine-protein kinase 26 (Homo sapiens) (UniProt Q9P289); remark: listed apart in the source
[8] = biological target: T4, Serine/threonine-protein kinase PLK4 (Homo sapiens) (UniProt O00444)
T4 sequence (whole entry): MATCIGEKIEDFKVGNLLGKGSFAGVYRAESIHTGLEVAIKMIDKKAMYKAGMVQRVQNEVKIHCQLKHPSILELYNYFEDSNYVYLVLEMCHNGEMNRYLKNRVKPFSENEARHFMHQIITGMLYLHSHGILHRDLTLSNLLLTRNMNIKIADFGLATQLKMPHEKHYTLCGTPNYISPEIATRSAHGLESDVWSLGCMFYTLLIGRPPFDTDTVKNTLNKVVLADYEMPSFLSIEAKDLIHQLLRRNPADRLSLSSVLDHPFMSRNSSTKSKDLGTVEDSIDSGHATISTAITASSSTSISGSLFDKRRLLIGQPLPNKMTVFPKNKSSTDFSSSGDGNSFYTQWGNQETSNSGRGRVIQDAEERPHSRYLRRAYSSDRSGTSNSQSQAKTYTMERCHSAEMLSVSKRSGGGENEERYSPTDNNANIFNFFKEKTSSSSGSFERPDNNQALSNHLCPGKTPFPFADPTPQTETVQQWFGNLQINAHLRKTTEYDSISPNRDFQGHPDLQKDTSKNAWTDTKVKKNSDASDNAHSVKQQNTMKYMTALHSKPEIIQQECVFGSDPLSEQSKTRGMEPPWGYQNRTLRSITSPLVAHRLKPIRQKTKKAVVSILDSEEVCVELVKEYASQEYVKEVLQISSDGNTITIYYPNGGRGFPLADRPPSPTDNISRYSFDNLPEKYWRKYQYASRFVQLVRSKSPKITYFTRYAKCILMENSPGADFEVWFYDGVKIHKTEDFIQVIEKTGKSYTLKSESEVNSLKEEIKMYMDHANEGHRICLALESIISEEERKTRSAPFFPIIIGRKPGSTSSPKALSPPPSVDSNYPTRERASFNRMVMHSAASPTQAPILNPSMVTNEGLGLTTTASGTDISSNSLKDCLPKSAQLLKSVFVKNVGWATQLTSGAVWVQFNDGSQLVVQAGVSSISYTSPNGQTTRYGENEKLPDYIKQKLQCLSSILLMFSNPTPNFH

[9] = biological target: Serine/threonine-protein kinase 38 (Homo sapiens) (UniProt Q15208)
Chain of Serine/threonine-protein kinase 38 (Homo sapiens) (Q15208 2-465 limits assumed): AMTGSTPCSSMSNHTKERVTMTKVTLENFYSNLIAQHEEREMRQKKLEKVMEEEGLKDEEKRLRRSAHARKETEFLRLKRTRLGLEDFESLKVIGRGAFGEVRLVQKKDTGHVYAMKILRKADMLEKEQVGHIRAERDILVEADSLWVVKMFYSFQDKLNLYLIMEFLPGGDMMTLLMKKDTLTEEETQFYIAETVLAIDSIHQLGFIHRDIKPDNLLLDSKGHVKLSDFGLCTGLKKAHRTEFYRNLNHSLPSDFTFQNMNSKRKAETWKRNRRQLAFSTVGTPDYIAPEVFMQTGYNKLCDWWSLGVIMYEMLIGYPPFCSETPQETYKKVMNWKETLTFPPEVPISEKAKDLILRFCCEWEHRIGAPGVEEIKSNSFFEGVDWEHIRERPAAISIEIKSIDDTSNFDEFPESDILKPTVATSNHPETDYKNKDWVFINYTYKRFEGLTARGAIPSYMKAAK

[10] = biological target: cAMP-dependent protein kinase catalytic subunit alpha (Homo sapiens) (UniProt P17612)
[11] = biological target: Dual specificity protein kinase CLK3 (Homo sapiens) (UniProt P49761)
Chain of Dual specificity protein kinase CLK3 (Homo sapiens) (P49761 whole entry, looked up): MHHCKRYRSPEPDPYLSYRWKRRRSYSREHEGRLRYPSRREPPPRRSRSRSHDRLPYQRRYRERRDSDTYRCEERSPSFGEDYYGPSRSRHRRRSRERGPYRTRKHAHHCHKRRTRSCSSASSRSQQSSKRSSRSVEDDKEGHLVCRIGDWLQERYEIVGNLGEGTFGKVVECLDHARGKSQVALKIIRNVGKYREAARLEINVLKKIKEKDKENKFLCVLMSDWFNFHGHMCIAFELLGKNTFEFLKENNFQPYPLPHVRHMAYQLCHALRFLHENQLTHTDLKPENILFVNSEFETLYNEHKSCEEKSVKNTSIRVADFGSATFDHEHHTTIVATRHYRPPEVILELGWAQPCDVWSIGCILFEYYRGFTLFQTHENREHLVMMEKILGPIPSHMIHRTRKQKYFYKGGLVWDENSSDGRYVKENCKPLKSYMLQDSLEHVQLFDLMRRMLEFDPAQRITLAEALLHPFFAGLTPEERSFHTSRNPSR

[12] = biological target: Death-associated protein kinase 3 (Homo sapiens) (UniProt O43293)
Chain of Death-associated protein kinase 3 (Homo sapiens) (O43293 whole entry, looked up): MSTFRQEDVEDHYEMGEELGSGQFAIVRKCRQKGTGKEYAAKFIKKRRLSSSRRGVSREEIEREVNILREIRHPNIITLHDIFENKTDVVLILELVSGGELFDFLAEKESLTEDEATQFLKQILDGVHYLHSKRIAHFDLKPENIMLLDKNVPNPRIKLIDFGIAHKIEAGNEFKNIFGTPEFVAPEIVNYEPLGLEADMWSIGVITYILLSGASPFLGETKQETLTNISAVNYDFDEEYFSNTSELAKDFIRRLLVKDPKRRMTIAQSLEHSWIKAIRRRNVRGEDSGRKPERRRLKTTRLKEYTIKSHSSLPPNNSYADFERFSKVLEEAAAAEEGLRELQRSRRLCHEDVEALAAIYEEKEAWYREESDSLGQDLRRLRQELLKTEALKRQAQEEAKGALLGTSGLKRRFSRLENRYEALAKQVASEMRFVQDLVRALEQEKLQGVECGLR

[13] = biological target: Cyclin-dependent kinase 2 (Homo sapiens, UniProt P24941)
[14] = biological target: 5'-AMP-activated protein kinase catalytic subunit alpha-2 (Homo sapiens) (UniProt P54646)
Chain of 5'-AMP-activated protein kinase catalytic subunit alpha-2 (Homo sapiens) (P54646 whole entry, looked up): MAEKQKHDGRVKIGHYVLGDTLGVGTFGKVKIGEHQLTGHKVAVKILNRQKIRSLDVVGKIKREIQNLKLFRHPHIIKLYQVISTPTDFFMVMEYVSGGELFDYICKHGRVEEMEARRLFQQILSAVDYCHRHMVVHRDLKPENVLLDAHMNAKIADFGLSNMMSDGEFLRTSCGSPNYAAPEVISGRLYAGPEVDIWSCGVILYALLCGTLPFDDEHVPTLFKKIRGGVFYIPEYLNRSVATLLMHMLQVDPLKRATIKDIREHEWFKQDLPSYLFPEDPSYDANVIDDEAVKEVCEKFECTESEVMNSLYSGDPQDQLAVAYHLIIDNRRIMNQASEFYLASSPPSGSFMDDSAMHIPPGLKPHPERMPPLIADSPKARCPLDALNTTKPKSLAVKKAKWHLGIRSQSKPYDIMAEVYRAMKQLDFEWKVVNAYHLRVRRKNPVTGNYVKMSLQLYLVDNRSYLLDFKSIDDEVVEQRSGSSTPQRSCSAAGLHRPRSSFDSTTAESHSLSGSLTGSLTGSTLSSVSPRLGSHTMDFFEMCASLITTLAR

Chain of Casein kinase I isoform gamma-1 (Homo sapiens) (Q9HCP0 whole entry, looked up, canonical isoform): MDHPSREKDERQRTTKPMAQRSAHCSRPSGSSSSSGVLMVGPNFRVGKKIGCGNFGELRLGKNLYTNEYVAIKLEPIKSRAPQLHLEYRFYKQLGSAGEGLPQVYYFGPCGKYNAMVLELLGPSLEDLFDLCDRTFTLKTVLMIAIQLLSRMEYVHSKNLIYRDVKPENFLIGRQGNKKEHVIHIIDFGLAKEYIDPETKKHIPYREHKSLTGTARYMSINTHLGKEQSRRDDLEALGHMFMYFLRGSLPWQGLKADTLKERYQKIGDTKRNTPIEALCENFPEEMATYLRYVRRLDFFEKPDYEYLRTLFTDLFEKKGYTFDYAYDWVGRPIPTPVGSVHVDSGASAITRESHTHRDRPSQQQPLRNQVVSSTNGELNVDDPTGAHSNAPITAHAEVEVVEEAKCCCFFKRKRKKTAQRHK

CCOc1cc2ncnc(Nc3cccc(Br)c3)c2cc1OCC
ΔTm [1]: 1.2 °C | ΔTm [2]: 2.9 °C | ΔTm [3]: 0.8 °C | ΔTm [4]: 0.1 °C | ΔTm [5]: 0.8 °C | ΔTm [6]: 1.1 °C | ΔTm [7]: 1.3 °C | ΔTm [8]: 3.8 °C | ΔTm [9]: 0.7 °C | ΔTm [10]: 0.8 °C | ΔTm [11]: 0.3 °C | ΔTm [12]: 2.7 °C | ΔTm [13]: 0.4 °C | ΔTm [14]: 0.1 °C

N#CCCc1ccc2c(c1)-c1[nH]c3ccc([N+](=O)[O-])cc3c1CC(=O)N2 [ALSTERPAULLONE 2]
ΔTm [1]: 2.4 °C | ΔTm [2]: 9.6 °C | ΔTm [3]: 2.8 °C | ΔTm [4]: 0.6 °C | ΔTm [5]: 2.3 °C | ΔTm [6]: 2.2 °C | ΔTm [7]: 3.5 °C | ΔTm [8]: 10.3 °C | ΔTm [9]: 3.3 °C | ΔTm [10]: 1.1 °C | ΔTm [11]: 2.3 °C | ΔTm [12]: 1.7 °C | ΔTm [13]: 6.6 °C | ΔTm [14]: 1 °C

COc1nccc(-c2c(-c3ccc(F)cc3)ncn2[C@H]2CC[C@H](O)CC2)n1
ΔTm [1]: 0.9 °C | ΔTm [2]: 0 °C | ΔTm [3]: 2.8 °C | ΔTm [4]: -0.1 °C | ΔTm [5]: -0.3 °C | ΔTm [6]: 1 °C | ΔTm [7]: -1.4 °C | ΔTm [8]: 0.1 °C | ΔTm [9]: 0.4 °C | ΔTm [10]: -0.8 °C | ΔTm [11]: 0.1 °C | ΔTm [12]: 0.4 °C | ΔTm [13]: -0.6 °C | ΔTm [14]: 0.7 °C

COc1cc(C[C@H]2C(=O)OC[C@@H]2Cc2ccc(OC)c(OC)c2)ccc1O [ARCTIGENIN]
ΔTm [1]: 0 °C | ΔTm [2]: 1.4 °C | ΔTm [3]: 0.2 °C | ΔTm [4]: 0.4 °C | ΔTm [5]: 0.1 °C | ΔTm [6]: 1.1 °C | ΔTm [7]: -0.3 °C | ΔTm [8]: 0 °C | ΔTm [9]: 0.5 °C | ΔTm [10]: 0.2 °C | ΔTm [11]: 0 °C | ΔTm [12]: -0.3 °C | ΔTm [13]: 0.6 °C | ΔTm [14]: -0.9 °C

N=C(N)NCCNS(=O)(=O)c1cccc2cnccc12
ΔTm [1]: -0.3 °C | ΔTm [2]: 0.6 °C | ΔTm [3]: 0.1 °C | ΔTm [4]: 0.3 °C | ΔTm [5]: 0 °C | ΔTm [6]: 0.5 °C | ΔTm [7]: -0.3 °C | ΔTm [8]: 0.1 °C | ΔTm [9]: 0.1 °C | ΔTm [10]: 1.7 °C | ΔTm [11]: 0 °C | ΔTm [12]: 2 °C | ΔTm [13]: 0.3 °C | ΔTm [14]: 0.5 °C

CCOc1ccc(/C=C2/SC(=O)N(CCN)C2=O)cc1 [HIAZOLIDINEDIONE1]
ΔTm [1]: 0.3 °C | ΔTm [2]: -0.6 °C | ΔTm [3]: -0.1 °C | ΔTm [4]: -1.1 °C | ΔTm [5]: -0.5 °C | ΔTm [6]: 0.8 °C | ΔTm [7]: -0.3 °C | ΔTm [8]: 0.3 °C | ΔTm [9]: 0.5 °C | ΔTm [10]: 0.5 °C | ΔTm [11]: 0.1 °C | ΔTm [12]: 0.3 °C | ΔTm [13]: -0.1 °C | ΔTm [14]: 0.1 °C

Nc1n[nH]c2nc3ccccc3nc12 [QUINOXALINE1]
ΔTm [1]: 0.7 °C | ΔTm [2]: 3.5 °C | ΔTm [3]: 0.7 °C | ΔTm [4]: 0.4 °C | ΔTm [5]: 0.6 °C | ΔTm [6]: 1.2 °C | ΔTm [7]: 0.7 °C | ΔTm [8]: 1.5 °C | ΔTm [9]: 0.4 °C | ΔTm [10]: 0.6 °C | ΔTm [11]: 0.5 °C | ΔTm [12]: 1 °C | ΔTm [13]: 1.3 °C | ΔTm [14]: -0.1 °C

NC(=O)c1ccc2[nH]c(-c3ccc(Oc4ccc(Cl)cc4)cc3)nc2c1
ΔTm [1]: 1.7 °C | ΔTm [2]: 0.7 °C | ΔTm [3]: 1.3 °C | ΔTm [4]: 1.2 °C | ΔTm [5]: -0.8 °C | ΔTm [6]: 1.4 °C | ΔTm [7]: -0.1 °C | ΔTm [8]: 1.4 °C | ΔTm [9]: 1.7 °C | ΔTm [10]: 0.4 °C | ΔTm [11]: 0.5 °C | ΔTm [12]: 1.2 °C | ΔTm [13]: -0.7 °C | ΔTm [14]: -0.9 °C

O=S(=O)(c1cccc2c(Cl)cccc12)N1CCCNCC1
ΔTm [1]: 0.2 °C | ΔTm [2]: 0.7 °C | ΔTm [3]: -0.1 °C | ΔTm [4]: 0.1 °C | ΔTm [5]: -0.1 °C | ΔTm [6]: 0.9 °C | ΔTm [7]: 0 °C | ΔTm [8]: 0.4 °C | ΔTm [9]: 0.3 °C | ΔTm [10]: 1.4 °C | ΔTm [11]: -0.2 °C | ΔTm [12]: 2.5 °C | ΔTm [13]: 0.8 °C | ΔTm [14]: -0.4 °C
